Here are results for two compounds from ChEMBL document CHEMBL5653631, “A Potent and Selective ULK1 Inhibitor Suppresses Autophagy and Sensitizes Cancer Cells to Nutrient Stress” (iScience, 2018).

In experiment [1] the target is T1, Serine/threonine-protein kinase ICK (Homo sapiens) (UniProt Q9UPZ9).
T1 sequence (whole entry): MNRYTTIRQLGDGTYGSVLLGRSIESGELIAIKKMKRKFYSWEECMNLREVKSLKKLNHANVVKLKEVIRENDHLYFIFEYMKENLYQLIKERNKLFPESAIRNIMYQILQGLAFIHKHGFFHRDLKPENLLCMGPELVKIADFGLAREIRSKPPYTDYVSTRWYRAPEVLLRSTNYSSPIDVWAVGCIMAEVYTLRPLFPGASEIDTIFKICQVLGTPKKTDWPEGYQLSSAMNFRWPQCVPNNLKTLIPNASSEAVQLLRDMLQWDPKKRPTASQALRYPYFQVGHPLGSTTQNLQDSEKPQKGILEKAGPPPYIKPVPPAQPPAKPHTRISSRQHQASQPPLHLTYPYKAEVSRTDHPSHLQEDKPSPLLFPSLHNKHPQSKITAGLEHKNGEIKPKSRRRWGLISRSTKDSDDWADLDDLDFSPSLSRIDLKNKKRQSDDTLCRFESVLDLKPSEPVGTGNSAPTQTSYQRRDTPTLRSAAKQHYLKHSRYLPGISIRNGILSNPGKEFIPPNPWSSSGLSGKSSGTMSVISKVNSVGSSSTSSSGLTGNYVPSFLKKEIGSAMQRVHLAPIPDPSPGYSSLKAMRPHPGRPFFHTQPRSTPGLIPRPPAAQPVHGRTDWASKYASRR
In words: Inhibition of human recombinant ICK at 40 nM related to control ULK1.

In experiment [2] the target is Protein kinase C gamma type (Homo sapiens) (UniProt P05129). Kind of experiment: Inhibition of human recombinant PKCg at 40 nM related to control ULK1.
Experiment [3] concerns the target Fibroblast growth factor receptor 4 (Homo sapiens) (UniProt P22455). In words: Inhibition of human recombinant FGFR4 at 40 nM related to control ULK1.
Experiment [4] concerns the target STE20-like serine/threonine-protein kinase (Homo sapiens) (UniProt Q9H2G2). Kind of experiment: Inhibition of human recombinant SLK at 40 nM in presence of ATP by radiometric assay relative to control.
Experiment [5] deals with Calcium/calmodulin-dependent protein kinase type 1 (Homo sapiens) (UniProt Q14012). Kind of experiment: Inhibition of human recombinant CaMK1a at 500 nM related to control ULK1.
For experiment [6], the target named is T2, Inhibitor of nuclear factor kappa-B kinase subunit beta (Homo sapiens) (UniProt O14920).
T2 sequence (whole entry): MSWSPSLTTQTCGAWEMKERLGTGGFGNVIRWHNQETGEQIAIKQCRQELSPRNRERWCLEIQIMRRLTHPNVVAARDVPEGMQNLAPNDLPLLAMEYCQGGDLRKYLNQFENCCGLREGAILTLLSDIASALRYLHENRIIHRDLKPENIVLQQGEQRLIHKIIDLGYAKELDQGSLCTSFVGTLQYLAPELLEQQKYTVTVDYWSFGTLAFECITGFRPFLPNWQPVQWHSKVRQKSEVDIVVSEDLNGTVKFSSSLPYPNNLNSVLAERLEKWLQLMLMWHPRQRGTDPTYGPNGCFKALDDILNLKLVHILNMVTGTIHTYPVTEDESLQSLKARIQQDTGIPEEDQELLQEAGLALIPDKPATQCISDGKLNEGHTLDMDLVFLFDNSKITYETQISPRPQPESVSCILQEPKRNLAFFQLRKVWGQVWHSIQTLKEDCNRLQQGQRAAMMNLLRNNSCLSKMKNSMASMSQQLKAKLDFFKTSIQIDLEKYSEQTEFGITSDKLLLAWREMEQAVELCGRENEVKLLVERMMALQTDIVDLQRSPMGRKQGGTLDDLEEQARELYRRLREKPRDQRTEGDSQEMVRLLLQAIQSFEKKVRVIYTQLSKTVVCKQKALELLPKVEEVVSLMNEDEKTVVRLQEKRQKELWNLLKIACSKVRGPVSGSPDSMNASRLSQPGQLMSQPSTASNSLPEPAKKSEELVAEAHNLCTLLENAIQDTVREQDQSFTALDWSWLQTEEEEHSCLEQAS
Kind of experiment: Inhibition of human recombinant IKKb at 500 nM in presence of ATP by radiometric assay relative to control.

Experiment [7] addresses Serine/threonine-protein kinase PRP4 homolog (Homo sapiens) (UniProt Q13523). In words: Inhibition of human recombinant PRP4 at 500 nM related to control ULK1.
Experiment [8] concerns the target T3, Tyrosine-protein kinase JAK3 (Homo sapiens) (UniProt P52333).
T3 sequence (whole entry): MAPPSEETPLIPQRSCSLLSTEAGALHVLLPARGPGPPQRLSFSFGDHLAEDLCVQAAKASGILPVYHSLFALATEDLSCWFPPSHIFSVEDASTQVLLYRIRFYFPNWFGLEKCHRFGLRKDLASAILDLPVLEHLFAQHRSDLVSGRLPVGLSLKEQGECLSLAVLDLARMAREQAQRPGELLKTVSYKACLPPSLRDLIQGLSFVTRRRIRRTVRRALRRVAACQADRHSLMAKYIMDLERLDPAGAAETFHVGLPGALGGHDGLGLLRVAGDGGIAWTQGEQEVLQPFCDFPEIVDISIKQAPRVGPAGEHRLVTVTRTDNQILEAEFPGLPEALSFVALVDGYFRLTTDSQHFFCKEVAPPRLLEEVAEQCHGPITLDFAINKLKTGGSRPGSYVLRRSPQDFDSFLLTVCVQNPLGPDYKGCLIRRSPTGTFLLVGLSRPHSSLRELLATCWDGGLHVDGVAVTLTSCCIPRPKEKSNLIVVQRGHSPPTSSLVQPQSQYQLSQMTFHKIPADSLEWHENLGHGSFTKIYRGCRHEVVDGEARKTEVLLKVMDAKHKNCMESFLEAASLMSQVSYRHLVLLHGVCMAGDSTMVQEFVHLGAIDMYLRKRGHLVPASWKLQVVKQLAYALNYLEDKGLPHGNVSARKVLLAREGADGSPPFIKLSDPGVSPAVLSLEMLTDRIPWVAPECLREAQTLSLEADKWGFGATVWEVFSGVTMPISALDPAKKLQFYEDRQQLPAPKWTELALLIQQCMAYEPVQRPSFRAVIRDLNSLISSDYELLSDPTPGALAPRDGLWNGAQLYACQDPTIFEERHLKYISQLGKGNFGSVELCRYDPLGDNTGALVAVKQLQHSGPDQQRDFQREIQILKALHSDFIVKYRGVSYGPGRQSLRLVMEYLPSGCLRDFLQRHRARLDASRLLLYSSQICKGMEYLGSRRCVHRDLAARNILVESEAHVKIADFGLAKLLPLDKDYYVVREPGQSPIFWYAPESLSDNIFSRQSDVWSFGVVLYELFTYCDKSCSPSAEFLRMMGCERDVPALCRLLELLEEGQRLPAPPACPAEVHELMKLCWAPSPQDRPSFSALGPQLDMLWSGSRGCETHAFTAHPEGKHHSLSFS
Kind of experiment: Inhibition of human recombinant JAK3 at 500 nM related to control ULK1.

Serine/threonine-protein kinase PRP4 homolog (Homo sapiens), sequence (Q13523 whole entry): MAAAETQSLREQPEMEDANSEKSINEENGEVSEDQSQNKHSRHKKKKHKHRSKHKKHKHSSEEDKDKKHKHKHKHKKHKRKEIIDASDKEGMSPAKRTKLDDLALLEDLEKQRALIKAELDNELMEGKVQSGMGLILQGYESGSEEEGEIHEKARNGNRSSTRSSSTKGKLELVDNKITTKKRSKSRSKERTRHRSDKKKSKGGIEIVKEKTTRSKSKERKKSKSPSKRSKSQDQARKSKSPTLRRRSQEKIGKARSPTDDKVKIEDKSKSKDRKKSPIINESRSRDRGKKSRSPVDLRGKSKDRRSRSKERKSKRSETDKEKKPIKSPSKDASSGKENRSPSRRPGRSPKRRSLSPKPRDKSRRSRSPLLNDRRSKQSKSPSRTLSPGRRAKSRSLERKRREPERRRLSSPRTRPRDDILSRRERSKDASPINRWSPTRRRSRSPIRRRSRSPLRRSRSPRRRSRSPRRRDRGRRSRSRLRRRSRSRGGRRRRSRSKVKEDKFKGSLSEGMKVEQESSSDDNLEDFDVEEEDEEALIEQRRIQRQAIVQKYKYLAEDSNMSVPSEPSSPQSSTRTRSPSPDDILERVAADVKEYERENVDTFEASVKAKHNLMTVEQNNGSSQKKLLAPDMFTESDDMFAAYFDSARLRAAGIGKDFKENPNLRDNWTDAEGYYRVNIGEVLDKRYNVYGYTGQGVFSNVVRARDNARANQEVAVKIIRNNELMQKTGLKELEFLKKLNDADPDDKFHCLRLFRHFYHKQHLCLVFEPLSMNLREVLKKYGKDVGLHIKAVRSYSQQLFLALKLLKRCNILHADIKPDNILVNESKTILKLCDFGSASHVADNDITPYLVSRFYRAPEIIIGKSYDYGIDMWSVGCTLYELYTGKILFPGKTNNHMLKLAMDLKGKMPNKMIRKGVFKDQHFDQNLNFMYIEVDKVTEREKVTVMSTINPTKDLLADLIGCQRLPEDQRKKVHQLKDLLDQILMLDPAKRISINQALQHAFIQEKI
STE20-like serine/threonine-protein kinase (Homo sapiens), sequence (Q9H2G2 whole entry, looked up): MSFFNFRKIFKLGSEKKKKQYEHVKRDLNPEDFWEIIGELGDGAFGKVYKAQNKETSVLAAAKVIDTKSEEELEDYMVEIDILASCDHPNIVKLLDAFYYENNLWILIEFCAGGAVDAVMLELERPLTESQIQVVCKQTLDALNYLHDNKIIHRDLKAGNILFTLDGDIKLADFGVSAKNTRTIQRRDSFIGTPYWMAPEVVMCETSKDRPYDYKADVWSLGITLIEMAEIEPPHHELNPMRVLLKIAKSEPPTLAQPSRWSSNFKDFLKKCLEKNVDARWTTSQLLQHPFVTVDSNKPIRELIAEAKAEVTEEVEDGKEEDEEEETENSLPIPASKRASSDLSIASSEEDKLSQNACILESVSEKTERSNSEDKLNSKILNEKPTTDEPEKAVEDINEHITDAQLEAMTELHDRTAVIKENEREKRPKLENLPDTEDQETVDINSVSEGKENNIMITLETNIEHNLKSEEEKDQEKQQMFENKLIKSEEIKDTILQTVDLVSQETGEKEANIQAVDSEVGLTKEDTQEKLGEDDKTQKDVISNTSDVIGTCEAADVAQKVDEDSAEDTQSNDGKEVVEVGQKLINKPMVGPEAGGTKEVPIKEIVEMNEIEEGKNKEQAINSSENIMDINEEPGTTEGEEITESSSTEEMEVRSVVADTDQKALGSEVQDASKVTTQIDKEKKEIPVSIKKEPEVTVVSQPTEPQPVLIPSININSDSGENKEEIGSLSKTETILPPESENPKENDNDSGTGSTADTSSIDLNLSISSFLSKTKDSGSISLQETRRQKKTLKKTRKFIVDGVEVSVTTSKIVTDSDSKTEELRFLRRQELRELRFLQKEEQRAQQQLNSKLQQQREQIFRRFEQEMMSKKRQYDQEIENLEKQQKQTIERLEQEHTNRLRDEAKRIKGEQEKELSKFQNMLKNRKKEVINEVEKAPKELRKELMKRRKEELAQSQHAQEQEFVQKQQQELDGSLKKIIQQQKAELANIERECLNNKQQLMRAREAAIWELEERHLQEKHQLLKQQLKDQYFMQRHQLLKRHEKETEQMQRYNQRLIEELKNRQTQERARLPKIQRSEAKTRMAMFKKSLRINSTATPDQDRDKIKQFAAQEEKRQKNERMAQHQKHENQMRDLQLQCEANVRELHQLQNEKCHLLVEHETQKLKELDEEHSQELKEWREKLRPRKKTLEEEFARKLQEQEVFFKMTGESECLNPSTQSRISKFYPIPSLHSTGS
Calcium/calmodulin-dependent protein kinase type 1 (Homo sapiens), sequence (Q14012 whole entry, looked up): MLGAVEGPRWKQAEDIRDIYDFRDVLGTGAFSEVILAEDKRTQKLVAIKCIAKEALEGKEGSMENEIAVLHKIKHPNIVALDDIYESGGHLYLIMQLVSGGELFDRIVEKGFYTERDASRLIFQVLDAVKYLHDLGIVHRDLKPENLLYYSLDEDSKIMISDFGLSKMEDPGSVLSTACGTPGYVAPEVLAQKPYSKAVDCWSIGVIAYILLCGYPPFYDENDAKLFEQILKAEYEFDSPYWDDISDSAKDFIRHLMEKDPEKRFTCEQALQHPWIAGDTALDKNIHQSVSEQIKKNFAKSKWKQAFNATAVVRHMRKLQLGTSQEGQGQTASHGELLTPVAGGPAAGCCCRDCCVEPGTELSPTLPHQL
Fibroblast growth factor receptor 4 (Homo sapiens), sequence (P22455 22-802 limits assumed): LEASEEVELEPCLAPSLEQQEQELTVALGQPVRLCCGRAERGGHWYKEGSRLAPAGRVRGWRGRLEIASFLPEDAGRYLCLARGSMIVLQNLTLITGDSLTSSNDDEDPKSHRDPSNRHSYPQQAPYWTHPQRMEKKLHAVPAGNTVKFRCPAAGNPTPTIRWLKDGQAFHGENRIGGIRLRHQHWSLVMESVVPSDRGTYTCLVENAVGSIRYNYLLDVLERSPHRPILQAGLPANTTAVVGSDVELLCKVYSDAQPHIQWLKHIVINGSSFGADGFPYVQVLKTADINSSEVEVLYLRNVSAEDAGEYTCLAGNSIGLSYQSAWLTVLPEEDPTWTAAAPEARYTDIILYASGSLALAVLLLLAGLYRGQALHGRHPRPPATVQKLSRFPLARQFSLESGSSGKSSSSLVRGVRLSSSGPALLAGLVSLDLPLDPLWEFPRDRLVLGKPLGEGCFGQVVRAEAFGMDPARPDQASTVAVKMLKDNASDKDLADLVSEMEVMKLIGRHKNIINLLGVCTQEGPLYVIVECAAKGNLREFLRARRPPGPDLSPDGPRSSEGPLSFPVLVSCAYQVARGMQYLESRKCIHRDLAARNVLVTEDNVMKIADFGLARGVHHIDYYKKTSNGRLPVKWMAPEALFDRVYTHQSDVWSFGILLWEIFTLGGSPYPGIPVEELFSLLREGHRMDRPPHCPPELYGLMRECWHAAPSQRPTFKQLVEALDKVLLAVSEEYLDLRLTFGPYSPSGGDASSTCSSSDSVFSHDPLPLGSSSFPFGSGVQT

Regarding `O=C(N[C@@H](C1CC1)C(F)(F)F)c1cc(-c2cnn3cc(-c4ccc(F)cc4)cnc23)cs1`, the fold change (FC) in experiment [1], in experiment [2] and in experiment [3] was 0 each time. In experiment [4], the inhibition came out at 0%.
Turning to `CNC(=O)c1ccccc1Oc1nc(Nc2cc(OC)c(OC)c(OC)c2)ncc1Br`, the figures for the fold change (FC) in experiment [5], in experiment [7] and in experiment [8] were 0, 0.03 and 0.28, respectively. Moreover, the inhibition in experiment [6] is 2%.

A word on the inhibition: it is the drop in the measured response relative to a control, in per cent.
